These results are taken from BindingDB's records for doi:10.1016/S0960-894X(96)00483-0 (1996).

SMILES strings stand for the structures.

Sequence of Kynureninase (Pseudomonas fluorescens) (P83788 whole entry, looked up): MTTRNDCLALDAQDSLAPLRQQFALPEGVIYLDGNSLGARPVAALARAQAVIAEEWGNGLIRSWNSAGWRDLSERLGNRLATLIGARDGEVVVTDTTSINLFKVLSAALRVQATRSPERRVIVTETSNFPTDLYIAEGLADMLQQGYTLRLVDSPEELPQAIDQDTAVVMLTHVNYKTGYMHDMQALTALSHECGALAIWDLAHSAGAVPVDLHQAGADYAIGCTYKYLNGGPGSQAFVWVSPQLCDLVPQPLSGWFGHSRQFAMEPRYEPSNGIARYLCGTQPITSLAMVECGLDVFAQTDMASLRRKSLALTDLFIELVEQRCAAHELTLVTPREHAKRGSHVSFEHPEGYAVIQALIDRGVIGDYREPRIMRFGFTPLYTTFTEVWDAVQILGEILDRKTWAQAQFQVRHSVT

The experiment addresses Kynureninase (Pseudomonas fluorescens) (UniProt P83788). Kind of experiment: Compound was evaluated for its binding affinity against kynureninase isolated from Pseudomonas fluorescence.
With `N[C@@H](CC(=O)c1ccccc1)C(=O)O` [2-ammonio-4-oxo-4-phenyl-(2S)-butanoate], affinity was put at a Ki of 23.4 µM.

For the compound `COP(=O)(C[C@H](NC(=O)OCc1ccccc1)C(=O)O)c1ccccc1` (stereo partly drawn) [(R)-2-Benzyloxycarbonylamino-3-(methoxy-phenyl-phosphinoyl)-propionic acid], the Ki is 880 µM.

In the case of `Nc1ccccc1C(=O)C[C@H](N)C(=O)O` [2-ammonio-4-(2-ammoniophenyl)-4-oxo-(2S)-butanoate], the Ki stood at 4.28 µM. Compared with the last compound, the Ki is about 210-fold lower.

`COC(=O)[C@H](CP(=O)(OC)c1ccccc1)NC(=O)OCc1ccccc1` (stereo partly drawn) [(R)-2-Benzyloxycarbonylamino-3-(methoxy-phenyl-phosphinoyl)-propionic acid methyl ester] gave a Ki of 8.8 µM. Compared with the last compound, the Ki is about 2.1-fold higher.

By Ki is commonly meant a dissociation constant, usually derived from enzyme kinetics or from competition with a known ligand. The low end stands for tighter binding, the high end for weaker binding.
